Article PMC11464693 (Nature Communications, 2024)

Assays:
[1] = molecular target: T1, XylD (Caulobacter vibrioides, UniProt A0A0H3C6H6); test: semicarbazone assay at […] nm; assay type: biochemical; details: 37 °C
T1 sequence (A0A0H3C6H6 1-591): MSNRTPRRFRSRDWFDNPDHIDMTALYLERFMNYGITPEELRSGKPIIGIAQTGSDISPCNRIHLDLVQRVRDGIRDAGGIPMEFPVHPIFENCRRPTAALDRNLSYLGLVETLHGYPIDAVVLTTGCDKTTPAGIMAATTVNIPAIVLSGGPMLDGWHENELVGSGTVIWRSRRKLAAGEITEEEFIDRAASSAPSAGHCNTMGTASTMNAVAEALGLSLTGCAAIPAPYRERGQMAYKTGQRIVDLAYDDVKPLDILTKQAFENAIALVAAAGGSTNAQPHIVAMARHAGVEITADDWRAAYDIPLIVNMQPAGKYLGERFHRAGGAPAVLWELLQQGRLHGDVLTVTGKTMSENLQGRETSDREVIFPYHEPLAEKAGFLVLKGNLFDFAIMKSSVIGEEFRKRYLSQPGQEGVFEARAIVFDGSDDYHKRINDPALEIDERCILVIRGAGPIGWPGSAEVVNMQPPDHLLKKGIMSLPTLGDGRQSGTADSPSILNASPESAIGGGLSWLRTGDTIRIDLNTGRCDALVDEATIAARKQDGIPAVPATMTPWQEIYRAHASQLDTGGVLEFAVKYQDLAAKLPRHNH

[2] = molecular target: T2, XDH (Caulobacter vibrioides, UniProt B8H1Z0); test: NADH formation at […] nm; assay type: biochemical; details: 10 mM D-xylose, 1 mM NAD+, 37 °C
T2 sequence (B8H1Z0 1-248): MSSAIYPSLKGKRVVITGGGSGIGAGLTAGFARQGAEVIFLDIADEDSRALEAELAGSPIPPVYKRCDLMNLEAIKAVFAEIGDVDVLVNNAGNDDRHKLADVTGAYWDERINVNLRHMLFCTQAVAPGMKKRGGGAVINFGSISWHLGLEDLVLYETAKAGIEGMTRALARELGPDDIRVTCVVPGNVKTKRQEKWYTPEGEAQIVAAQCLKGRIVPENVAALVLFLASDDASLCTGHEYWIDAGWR

[3] = molecular target: T3, KGSADH (Caulobacter vibrioides, UniProt A0A0H3C801); test: NADH formation at […] nm; assay type: biochemical
T3 sequence (A0A0H3C801 1-478): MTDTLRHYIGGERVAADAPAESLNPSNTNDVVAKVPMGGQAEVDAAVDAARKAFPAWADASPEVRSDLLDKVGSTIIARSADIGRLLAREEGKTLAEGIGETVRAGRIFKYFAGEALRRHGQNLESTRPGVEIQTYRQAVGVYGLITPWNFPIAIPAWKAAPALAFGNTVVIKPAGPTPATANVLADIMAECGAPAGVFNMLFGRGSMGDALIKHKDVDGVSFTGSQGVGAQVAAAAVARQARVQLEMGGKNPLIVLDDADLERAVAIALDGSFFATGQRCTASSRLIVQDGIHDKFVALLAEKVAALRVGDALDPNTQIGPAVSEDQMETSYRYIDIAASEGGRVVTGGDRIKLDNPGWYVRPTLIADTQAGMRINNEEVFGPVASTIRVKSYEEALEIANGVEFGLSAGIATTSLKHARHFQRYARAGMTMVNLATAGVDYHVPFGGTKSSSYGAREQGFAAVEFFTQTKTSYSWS

[4] = molecular target: T4, laccase (Lac) (Bacillus subtilis, UniProt P07788); test: ABTS oxidation at […] nm, whole cells; assay type: cell-based; details: 5 mM ABTS, 37 °C, pH optimum 5.0; surface-displayed enzyme
T4 sequence (P07788 1-513): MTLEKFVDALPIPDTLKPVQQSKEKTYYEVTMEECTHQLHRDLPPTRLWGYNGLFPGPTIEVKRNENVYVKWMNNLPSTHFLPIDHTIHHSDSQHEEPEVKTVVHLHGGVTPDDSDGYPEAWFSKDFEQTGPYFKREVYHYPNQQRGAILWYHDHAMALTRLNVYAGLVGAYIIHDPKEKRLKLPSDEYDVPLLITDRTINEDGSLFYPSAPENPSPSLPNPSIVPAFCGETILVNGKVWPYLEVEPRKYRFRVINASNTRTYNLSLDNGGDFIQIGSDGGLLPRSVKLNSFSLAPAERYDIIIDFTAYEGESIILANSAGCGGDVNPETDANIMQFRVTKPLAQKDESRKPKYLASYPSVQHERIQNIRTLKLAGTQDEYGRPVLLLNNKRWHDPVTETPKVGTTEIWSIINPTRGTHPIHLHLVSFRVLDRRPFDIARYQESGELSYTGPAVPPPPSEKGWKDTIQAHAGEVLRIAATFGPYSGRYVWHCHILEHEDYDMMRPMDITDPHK

[5] = molecular target: XylC (Caulobacter vibrioides, UniProt A0A0H3C6P8); test: decrease of p-nitrophenol absorbance at […] nm; assay type: biochemical; details: spontaneous hydrolysis controlled
XylC, sequence (A0A0H3C6P8 1-289): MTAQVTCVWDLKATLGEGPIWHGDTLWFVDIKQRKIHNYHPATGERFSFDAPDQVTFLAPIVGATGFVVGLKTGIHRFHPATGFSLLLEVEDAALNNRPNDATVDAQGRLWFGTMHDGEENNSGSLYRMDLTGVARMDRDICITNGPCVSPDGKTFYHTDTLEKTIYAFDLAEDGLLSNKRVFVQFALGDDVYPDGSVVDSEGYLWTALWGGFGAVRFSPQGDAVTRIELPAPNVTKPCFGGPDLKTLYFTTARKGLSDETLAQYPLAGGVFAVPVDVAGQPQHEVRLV

## O=C(O)[C@H](O)[C@@H](O)[C@H](O)CO [D-xylonic acid]
[1]
  semicarbazone assay at 250 nm: D-xylonic acid would be transformed into 2-keto-3-deoxyxylic acid by XylD

## NC(=O)c1ccc[n+]([C@@H]2O[C@H](COP(=O)(O)OP(=O)(O)OC[C@H]3O[C@@H](n4cnc5c(N)ncnc54)[C@H](O)[C@@H]3O)[C@@H](O)[C@H]2O)c1 [NAD^+]
[2]
  NADH formation at 340 nm: catalyzed by XDH using NAD^+ as coenzyme
[3]; glutaraldehyde as substrate
  NADH formation at 340 nm: activity of KGSADH by following the rate of NAD^+ reduction

## CCn1c(=NN=c2sc3cc(S(=O)(=O)O)ccc3n2CC)sc2cc(S(=O)(=O)O)ccc21 [ABTS, 2,2’-azino-bis (3-ethylbenzothiazoline-6-sulfonic acid)]
[4]
  ABTS oxidation at 420 nm, whole cells: The oxidation activity of E. coli-Lac towards ABTS was calibrated by measuring the absorbance

## OC1OC[C@@H](O)[C@H](O)[C@H]1O (stereo partly drawn) [D-xylose]
[2]
  NADH formation at 340 nm: D-xylose is oxidized into D-xylono-lactone and generates NADH catalyzed by XDH

## O=C1O[C@H](CO)[C@H](O)[C@H]1O [xylono-1,4-lactone]
[5]
  decrease of p-nitrophenol absorbance at 405 nm: To examine the activity of XylC, D-xylono-lactone was used as substrate to produce D-xylonic acid

## O=CCCCC=O [glutaraldehyde]
[3]; NAD+, substitute substrate
  NADH formation at 340 nm: monitored by measuring the generation of NADH using analogous glutaraldehyde as substrate
